{
  "source": "paper PMC7549094",
  "about": "(Journal of Medicinal Chemistry, 2020)",
  "key": {"hr ETa": {"biological_target": "T1, hr ETa (Homo sapiens, UniProt P25101)", "T1 sequence (P25101 21-427)": "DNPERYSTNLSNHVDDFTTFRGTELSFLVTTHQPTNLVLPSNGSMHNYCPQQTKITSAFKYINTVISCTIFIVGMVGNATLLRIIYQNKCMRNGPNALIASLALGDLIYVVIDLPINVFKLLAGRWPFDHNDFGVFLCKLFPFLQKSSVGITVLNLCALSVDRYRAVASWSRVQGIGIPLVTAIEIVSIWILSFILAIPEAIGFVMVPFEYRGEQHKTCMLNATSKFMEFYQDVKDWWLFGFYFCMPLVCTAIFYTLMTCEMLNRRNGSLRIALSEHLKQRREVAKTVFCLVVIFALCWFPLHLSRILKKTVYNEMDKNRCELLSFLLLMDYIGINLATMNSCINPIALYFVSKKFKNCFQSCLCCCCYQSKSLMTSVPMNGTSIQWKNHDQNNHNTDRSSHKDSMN", "test": "receptor profile (Table S4)", "format": "binding"}, "[1]": {"conditions": "microsomal extraction ratio, 1 h incubation in microsomes"}, "[2]": {"test": "metabolite profile in mouse hepatocytes", "format": "in vitro ADME", "conditions": "10 μM of 1 for 4 h, UV 250 nm, normalized to largest peak"}, "[3]": {"test": "metabolite profile in rat hepatocytes", "format": "in vitro ADME", "conditions": "10 μM of 1 for 4 h, UV 250 nm, normalized to largest peak"}, "hr MC3": {"biological_target": "hr MC3 (Homo sapiens, UniProt P41968)", "sequence (P41968 whole entry)": "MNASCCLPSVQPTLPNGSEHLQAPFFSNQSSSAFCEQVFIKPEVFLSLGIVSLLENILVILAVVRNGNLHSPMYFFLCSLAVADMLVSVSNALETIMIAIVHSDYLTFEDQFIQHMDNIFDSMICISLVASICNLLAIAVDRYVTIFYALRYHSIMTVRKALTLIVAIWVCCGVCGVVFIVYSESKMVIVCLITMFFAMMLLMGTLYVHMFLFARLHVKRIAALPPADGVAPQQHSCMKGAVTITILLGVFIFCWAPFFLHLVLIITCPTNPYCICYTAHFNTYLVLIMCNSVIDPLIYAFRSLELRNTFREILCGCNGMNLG", "test": "receptor profile (Table S4)", "format": "binding"}, "hr Ad1": {"biological_target": "T2, hr Ad1 (Homo sapiens, UniProt P30542)", "T2 sequence (P30542 1-326)": "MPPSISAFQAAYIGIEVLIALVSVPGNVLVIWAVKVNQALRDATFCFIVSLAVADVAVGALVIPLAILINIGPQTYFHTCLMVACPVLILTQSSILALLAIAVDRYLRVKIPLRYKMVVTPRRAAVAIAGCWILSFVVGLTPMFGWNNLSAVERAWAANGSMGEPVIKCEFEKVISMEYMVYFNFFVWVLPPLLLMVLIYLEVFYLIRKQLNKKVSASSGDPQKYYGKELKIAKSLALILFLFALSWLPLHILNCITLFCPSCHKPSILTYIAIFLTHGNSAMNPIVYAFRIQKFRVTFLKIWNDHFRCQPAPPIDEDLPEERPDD", "test": "receptor profile (Table S4)", "format": "binding"}, "hr 5-HTT": {"biological_target": "hr 5-HTT (Homo sapiens, UniProt P31645)", "sequence (P31645 whole entry)": "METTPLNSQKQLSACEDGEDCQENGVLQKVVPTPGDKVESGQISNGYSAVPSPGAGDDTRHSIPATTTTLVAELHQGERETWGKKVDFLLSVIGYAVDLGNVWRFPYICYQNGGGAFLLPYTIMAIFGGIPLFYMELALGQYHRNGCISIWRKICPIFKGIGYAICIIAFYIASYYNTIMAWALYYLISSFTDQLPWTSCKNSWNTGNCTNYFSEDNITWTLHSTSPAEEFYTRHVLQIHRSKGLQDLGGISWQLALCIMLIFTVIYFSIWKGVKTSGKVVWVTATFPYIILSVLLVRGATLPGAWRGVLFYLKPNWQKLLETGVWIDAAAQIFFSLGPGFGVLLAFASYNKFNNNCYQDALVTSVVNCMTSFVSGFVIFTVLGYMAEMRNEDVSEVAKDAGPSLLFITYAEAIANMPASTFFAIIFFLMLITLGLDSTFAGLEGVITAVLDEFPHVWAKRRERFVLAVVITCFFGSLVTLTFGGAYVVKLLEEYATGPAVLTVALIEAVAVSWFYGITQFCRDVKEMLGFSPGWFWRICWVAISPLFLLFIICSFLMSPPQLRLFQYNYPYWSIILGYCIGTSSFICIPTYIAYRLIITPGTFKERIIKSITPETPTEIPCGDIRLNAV", "test": "receptor profile (Table S4)", "format": "binding"}, "[4]": {"test": "mouse plasma protein binding", "format": "in vitro ADME"}, "[5]": {"biological_target": "T3, purified L. donovani proteasome (Leishmania donovani, UniProt A0A3Q8IIY4+A0A3S7XA80)", "T3 sequence (A0A3Q8IIY4 100-302)": "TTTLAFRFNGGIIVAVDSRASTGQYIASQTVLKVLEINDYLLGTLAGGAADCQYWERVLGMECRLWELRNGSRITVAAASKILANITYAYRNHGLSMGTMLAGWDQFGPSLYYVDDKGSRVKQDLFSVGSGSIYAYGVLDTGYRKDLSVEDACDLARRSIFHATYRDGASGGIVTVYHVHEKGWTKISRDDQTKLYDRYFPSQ", "T3 sequence (A0A3S7XA80 1-206)": "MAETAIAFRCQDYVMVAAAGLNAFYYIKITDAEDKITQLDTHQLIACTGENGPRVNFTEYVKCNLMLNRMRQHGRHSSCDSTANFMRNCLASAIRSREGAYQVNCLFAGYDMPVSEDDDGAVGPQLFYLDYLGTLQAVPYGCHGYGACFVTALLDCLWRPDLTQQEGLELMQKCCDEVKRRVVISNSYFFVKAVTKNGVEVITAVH", "test": "chymotrypsin-like activity of purified L. donovani proteasome", "format": "biochemical", "conditions": "half-maximum inhibition of chymotrypsin-like activity of purified L. donovani proteasome; mean, n = 4 technical replicates"}, "[6]": {"test": "brain/plasma exposure in mice", "format": "in vivo", "conditions": "mouse, brain, read-out: brain/plasma AUC ratio"}, "hr 5-HT1A antag": {"biological_target": "T4, hr 5-HT1A antag (Homo sapiens, UniProt P08908)", "T4 sequence (P08908 1-422)": "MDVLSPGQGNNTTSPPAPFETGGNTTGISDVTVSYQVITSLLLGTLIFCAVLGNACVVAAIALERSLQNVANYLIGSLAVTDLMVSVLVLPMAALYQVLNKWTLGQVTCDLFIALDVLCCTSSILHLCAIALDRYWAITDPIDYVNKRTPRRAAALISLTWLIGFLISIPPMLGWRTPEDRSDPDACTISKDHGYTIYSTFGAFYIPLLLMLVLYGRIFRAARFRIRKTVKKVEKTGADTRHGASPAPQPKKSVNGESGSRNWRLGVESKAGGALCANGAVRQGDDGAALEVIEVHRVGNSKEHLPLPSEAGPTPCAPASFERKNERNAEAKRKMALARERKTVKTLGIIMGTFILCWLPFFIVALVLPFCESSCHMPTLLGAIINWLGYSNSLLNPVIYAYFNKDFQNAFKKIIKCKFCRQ", "test": "receptor profile (Table S4)", "format": "biochemical"}, "hr TP antag": {"biological_target": "T5, hr TP antag (Homo sapiens, UniProt P21731)", "T5 sequence (P21731 1-343)": "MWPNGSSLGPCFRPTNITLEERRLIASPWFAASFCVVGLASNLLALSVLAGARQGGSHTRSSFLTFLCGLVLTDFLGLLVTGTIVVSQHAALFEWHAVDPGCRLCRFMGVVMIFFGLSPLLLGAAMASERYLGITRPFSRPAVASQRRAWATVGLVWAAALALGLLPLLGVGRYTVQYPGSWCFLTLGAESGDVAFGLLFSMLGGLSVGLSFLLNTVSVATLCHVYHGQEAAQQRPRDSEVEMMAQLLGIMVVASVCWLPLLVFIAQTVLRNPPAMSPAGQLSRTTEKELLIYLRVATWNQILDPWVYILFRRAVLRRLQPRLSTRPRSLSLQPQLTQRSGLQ", "test": "receptor profile (Table S4)", "format": "biochemical"}, "hr Beta1": {"biological_target": "hr Beta1 (Homo sapiens, UniProt P08588)", "sequence (P08588 whole entry)": "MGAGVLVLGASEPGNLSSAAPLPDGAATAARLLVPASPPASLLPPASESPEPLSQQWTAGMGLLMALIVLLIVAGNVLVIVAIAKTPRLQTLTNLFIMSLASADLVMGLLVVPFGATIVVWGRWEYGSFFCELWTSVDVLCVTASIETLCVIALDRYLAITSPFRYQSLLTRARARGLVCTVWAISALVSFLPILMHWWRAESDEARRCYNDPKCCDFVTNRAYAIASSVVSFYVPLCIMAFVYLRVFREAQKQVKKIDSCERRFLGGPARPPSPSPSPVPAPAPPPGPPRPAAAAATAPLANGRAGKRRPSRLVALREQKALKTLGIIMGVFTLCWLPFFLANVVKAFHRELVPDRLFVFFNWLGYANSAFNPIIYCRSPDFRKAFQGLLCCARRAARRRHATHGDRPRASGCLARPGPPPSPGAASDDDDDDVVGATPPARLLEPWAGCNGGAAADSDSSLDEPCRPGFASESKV", "test": "receptor profile (Table S4)", "format": "binding"}},
  "data": [
    {"smiles": "Cc1nc(C)c(C(=O)Nc2ccc(F)c(-c3nc4ncc(-c5ncccc5C)cn4n3)c2)o1", "note": "[compound 1, N-(4-Fluoro-3-(6-(3-methylpyridin-2-yl)-[1,2,4]triazolo[1,5-a]pyrimidin-2-yl)phenyl)-2,4-dimethyloxazole-5-carboxamide]", "values": [
      {"measurement": "EC50/IC50", "setting": "hr ETa; hr ETa", "result": "> 30", "unit": "µM"},
      {"measurement": "inhibition at 10 µM", "setting": "hr ETa; read-out: % inh/act @ 10 µM", "result": 2, "unit": "%"},
      {"measurement": "inhibition at 30 µM", "setting": "hr ETa; read-out: % inh/act @ 30 µM", "result": 13, "unit": "%"},
      {"measurement": "ER mouse", "setting": "[1]", "result": "< 0.21"},
      {"measurement": "abundance mouse", "setting": "[2]", "result": "+++ (+++ > 75%)"},
      {"measurement": "abundance rat", "setting": "[3]", "result": "+++ (+++ > 75%)"},
      {"measurement": "EC50/IC50", "setting": "hr MC3; hr MC3", "result": "> 30", "unit": "µM"},
      {"measurement": "inhibition at 10 µM", "setting": "hr MC3; read-out: % inh/act @ 10 µM", "result": 10, "unit": "%"},
      {"measurement": "inhibition at 30 µM", "setting": "hr MC3; read-out: % inh/act @ 30 µM", "result": 24, "unit": "%"},
      {"measurement": "EC50/IC50", "setting": "hr Ad1; hr Ad1", "result": "> 30", "unit": "µM"},
      {"measurement": "inhibition at 10 µM", "setting": "hr Ad1; read-out: % inh/act @ 10 µM", "result": 10, "unit": "%"},
      {"measurement": "inhibition at 30 µM", "setting": "hr Ad1; read-out: % inh/act @ 30 µM", "result": 27, "unit": "%"},
      {"measurement": "EC50/IC50", "setting": "hr 5-HTT; hr 5-HTT", "result": "> 30", "unit": "µM"},
      {"measurement": "inhibition at 10 µM", "setting": "hr 5-HTT; read-out: % inh/act @ 10 µM", "result": 17, "unit": "%"},
      {"measurement": "inhibition at 30 µM", "setting": "hr 5-HTT; read-out: % inh/act @ 30 µM", "result": 12, "unit": "%"},
      {"measurement": "fraction unbound", "setting": "[4]", "result": 0.056},
      {"measurement": "IC50", "setting": "[5]", "result": 0.04, "unit": "µM"},
      {"measurement": "Kp", "setting": "[6]", "result": 0.03},
      {"measurement": "EC50/IC50", "setting": "hr 5-HT1A antag; hr 5-HT1A antag", "result": "> 30", "unit": "µM"},
      {"measurement": "inhibition at 10 µM", "setting": "hr 5-HT1A antag; read-out: % inh/act @ 10 µM", "result": 19, "unit": "%"},
      {"measurement": "inhibition at 30 µM", "setting": "hr 5-HT1A antag; read-out: % inh/act @ 30 µM", "result": 42, "unit": "%"},
      {"measurement": "EC50/IC50", "setting": "hr TP antag; hr TP antag", "result": "> 30", "unit": "µM"},
      {"measurement": "inhibition at 10 µM", "setting": "hr TP antag; read-out: % inh/act @ 10 µM", "result": 14, "unit": "%"},
      {"measurement": "inhibition at 30 µM", "setting": "hr TP antag; read-out: % inh/act @ 30 µM", "result": 28, "unit": "%"},
      {"measurement": "EC50/IC50", "setting": "hr Beta1; hr Beta1", "result": "> 30", "unit": "µM"},
      {"measurement": "inhibition at 10 µM", "setting": "hr Beta1; read-out: % inh/act @ 10 µM", "result": 6, "unit": "%"},
      {"measurement": "inhibition at 30 µM", "setting": "hr Beta1; read-out: % inh/act @ 30 µM", "result": 10, "unit": "%"}
    ]}
  ]
}
